From US20120302954A1, “EXPANDABLE DEVICES COATED WITH A PACLITAXEL COMPOSITION” (priority 2011, published 2012)

Legend:
[1] = Sirolimus tissue concentration in porcine coronary arteries by LC-MS; format: in vivo; conditions: 50 mg/ml
Description: In accordance with a second experiment, the efficacy of a PTCA balloon coated with the 5 percent BHT solution was tested in a porcine injury model. The balloon coating formulation of sirolimus and BHT (5 percent BHT, w/w) was made according to the procedure described above. In total, three coating solutions of sirolimus and BHT (5 percent BHT, w/w) and one coating solution without BHT were prepared for the study. A standard CYPHER® Sirolimus-eluting Coronary Stent available from the Cordis Corporation was used as a control for the study. Both FIRE STAR® PTCA balloons (3.5 mm×20 mm, with total surface area of 220 mm^2) with hydrophilic treatment and the ones without a hydrophilic treatment were tested in the study. The final coating density of sirolimus and sirolimus loss during expansion were measured by HPLC. The tissue concentration in the porcine coronary arteries was measured by liquid chromatography-mass spectroscopy (LC-MS). The amount of intimal hyperplasia was determined by standard quantitative coronary angiography (QCA) at day 30.

[2] = Drug concentration in liquid formulations by liquid chromatography / HPLC; format: physicochemical
Source text: A series of liquid formulations were developed for the local or regional delivery of water insoluble compounds such as sirolimus and its analogs, including CCI-779, ABT-578 and everolimus, through weeping balloons and catheter injection needles. Sirolimus and its analogs are rapamycins. These liquid formulations increase the apparent solubility of the pharmacologically active but water insoluble compounds by two to four orders of magnitude as compared to the solubility limits of the compounds in water. These liquid formulations rely on the use of a very small amount of organic solvents such as Ethanol and a larger amount of safe amphiphilic (of or relating to a molecule having a polar, water soluble group attached to a non-polar, water insoluble […]) excipients such as polyethylene glycol (PEG 200, PEG 400) and vitamin E TPGS to enhance the solubility of the compounds. These liquid formulations of highly water insoluble compounds are stable and readily flowable at room temperature. Certain excipients, such as Vitamin E TPGS and BHT may be utilized to enhance the storage stability of sirolimus compounds through their anti-oxidation properties.
Table 7, shown below, summarizes the concentrations of the excipient, the co-solvents and the drug for four different liquid formulations. […]

[3] = Percent drug content change of coated cobalt-chromium 18 mm stent over 0 to 12 weeks (FIG. 1); format: physicochemical; conditions: 0.02 weight percent BHT per total basecoat solids; 8 weeks and 12 weeks, ambient conditions (25° C.)
Source text: Referring to FIG. 1, there is illustrated in graphical format, the results of the same drug screening as described above with the solution applied to a cobalt-chromium, 18 mm stent. In this test, two sets of solution samples were utilized, one with sirolimus and polymer solution containing the antioxidant and one with sirolimus and polymer solution containing no antioxidant. The antioxidant utilized was 0.02 weight percent BHT per total basecoat solids. The test was utilized to determine the percent drug content change over a time period of 0 to 12 weeks under two conditions; namely, 40° C. with 75 percent relative humidity, and ambient conditions (25° C.).

[4] = Description: Table 9, shown below, summarizes a number of injectable liquid formulations of paclitaxel utilizing combinations of ethanol, PEG 400 and water. Specifically, the formulations set forth in Table 9 were made and analyzed for their concentrations of its various constituents. The concentrations are determined by liquid chromatography and are presented as weight by volume figures. The concentration of ethanol is preferably two or less percent so as to avoid ethanol becoming an active ingredient in the formulation.
Another aqueous liquid or injectable formulation of paclitaxel is made utilizing ethanol, PEG 400 and water, and ethanol, Vitamin E TPGS, PEG400 and water. In making the first formulation, 100 mg of paclitaxel is added to 400 μl of ethanol in a pre-weighed 20 ml scintillation vial. The mixture of paclitaxel and ethanol is vortexed and heated in a 60 degree C. bath for ten minutes. Once the drug is completely solubilized, 20 ml of PEG 400 is then added to make the final paclitaxel concentration 5 mg/ml. […] In a separate experiment, a series of 20 ml scintillation vials containing Vitamin E TPGS are heated or warmed up in a 50 degree C. water bath for ten minutes. Concurrently, distilled water is also warmed in a 50 degree C. water bath. […]

Question: Which “Sirolimus conc in artery tissue post-deploy” value (from here on “Sirolimus conc”) ([1]; 20 min, hydrophilic coat No, Acetone/ethanol/water (50/40/10), BHT 5% (PKd)) does the source give for `CO[C@H]1C[C@@H]2CC[C@@H](C)[C@@](O)(O2)C(=O)C(=O)N2CCCC[C@H]2C(=O)O[C@H]([C@H](C)C[C@@H]2CC[C@@H](O)[C@H](OC)C2)CC(=O)[C@H](C)/C=C(\C)[C@@H](O)[C@@H](OC)C(=O)[C@H](C)C[C@H](C)/C=C/C=C/C=C/1C` [Rapamycin, rapamycin] here?
Answer: 382 ± 190 ng sirolimus/mg tissue

Question: What about the “Sirolimus conc” value ([1]; 20 min, hydrophilic coat No, IPA/Water (3.4/1), BHT 5% (PKb)) of the same compound?
Answer: 218 ± 96 ng sirolimus/mg tissue

Question: What about the “Sirolimus conc” value ([1]; 20 min, hydrophilic coat yes, IPA/Water (3.4/1), BHT 0% (PKc)) of the same compound?
Answer: 219 ± 85 ng sirolimus/mg tissue

Question: And the “Sirolimus conc” value ([1]; 20 min, hydrophilic coat yes, IPA/Water (3.4/1), BHT 5% (Pka))?
Answer: 313 ± 61 ng sirolimus/mg tissue

Question: And the “Sirolimus conc” value ([1]; 24 hr, hydrophilic coat No, Acetone/ethanol/water (50/40/10), BHT 5% (PKd))?
Answer: 25 ± 20 ng sirolimus/mg tissue

Question: And the “Sirolimus conc” value ([1]; 24 hr, hydrophilic coat No, IPA/Water (3.4/1), BHT 5% (PKb))?
Answer: 39 ± 37 ng sirolimus/mg tissue

Question: And the “Sirolimus conc” value ([1]; 24 hr, hydrophilic coat yes, IPA/Water (3.4/1), BHT 0% (PKc))?
Answer: 16 ± 11 ng sirolimus/mg tissue

Question: And the “Sirolimus conc” value ([1]; 24 hr, hydrophilic coat yes, IPA/Water (3.4/1), BHT 5% (Pka))?
Answer: 40.7 ± 14.6 ng sirolimus/mg tissue

Question: What about the “Sirolimus conc” value ([1]; 8 day, hydrophilic coat No, Acetone/ethanol/water (50/40/10), BHT 5% (PKd)) of the same compound?
Answer: 21 ± 36 ng sirolimus/mg tissue

Question: And the “Sirolimus conc” value ([1]; 8 day, hydrophilic coat No, IPA/Water (3.4/1), BHT 5% (PKb))?
Answer: 14 ± 15 ng sirolimus/mg tissue

Question: And the “Sirolimus conc” value ([1]; 8 day, hydrophilic coat yes, IPA/Water (3.4/1), BHT 0% (PKc))?
Answer: 16 ± 18 ng sirolimus/mg tissue

Question: What about the “Sirolimus conc” value ([1]; 8 day, hydrophilic coat yes, IPA/Water (3.4/1), BHT 5% (Pka)) of the same compound?
Answer: 9.8 ± 10.4 ng sirolimus/mg tissue

Question: And the “Sirolimus conc” value ([1]; 30 day, hydrophilic coat No, Acetone/ethanol/water (50/40/10), BHT 5% (PKd))?
Answer: 12 ± 18 ng sirolimus/mg tissue

Question: What about the “Sirolimus conc” value ([1]; 30 day, hydrophilic coat No, IPA/Water (3.4/1), BHT 5% (PKb)) of the same compound?
Answer: 5.0 ± 4.8 ng sirolimus/mg tissue

Question: And the “Sirolimus conc” value ([1]; 30 day, hydrophilic coat yes, IPA/Water (3.4/1), BHT 0% (PKc))?
Answer: 3.2 ± 2.8 ng sirolimus/mg tissue

Question: And the “Sirolimus conc” value ([1]; 30 day, hydrophilic coat yes, IPA/Water (3.4/1), BHT 5% (Pka))?
Answer: 8.4 ± 5.7 ng sirolimus/mg tissue

Question: And the “concentration in the 4 mg/ml PEG 200 formulation relative to the solubility in water” value ([2]; PEG 200 excipient, ethanol and water co-solvents)?
Answer: four hundred to about one thousand

Question: For `Cc1cc(C(C)(C)C)c(O)c(C(C)(C)C)c1` [BHT, butylated hydroxytoluene], which “percent drug content change (drug degradation)” value [3] is on record?
Answer: lessens drug degradation

Question: What does the source list for `CC(=O)O[C@H]1C(=O)[C@@]2(C)[C@H]([C@H](OC(=O)c3ccccc3)[C@]3(O)C[C@H](OC(=O)[C@H](O)[C@@H](NC(=O)c4ccccc4)c4ccccc4)C(C)=C1C3(C)C)[C@]1(OC(C)=O)CO[C@@H]1C[C@@H]2O` [paclitaxel]?
Answer: fold higher than the solubility in water [4]: about 1000 fold; concentration reached in true aqueous liquid formulations ([4]; PEG 400 / Vitamin E TPGS / ethanol / water): up to 2.5 mg/ml

Question: Which “concentration in the final solution (HPLC assay)” value ([2]; ethanol less than two percent, Vitamin E TPGS, water) does the source give for `CO[C@H]1C[C@@H]2CC[C@@H](C)[C@@](O)(O2)C(=O)C(=O)N2CCCC[C@H]2C(=O)O[C@H]([C@H](C)C[C@@H]2CC[C@@H](OC(=O)C(C)(CO)CO)[C@H](OC)C2)CC(=O)[C@H](C)/C=C(\C)[C@@H](O)[C@@H](OC)C(=O)[C@H](C)C[C@H](C)/C=C/C=C/C=C/1C` [CCI-779] here?
Answer: 15000 µg/mL
